Assay results: ChEMBL document CHEMBL1153947, “Carbonic anhydrase inhibitors. Inhibition of cytosolic isoforms I, II, III, VII and XIII with less investigated inorganic anions” (Bioorg Med Chem Lett, 2009)

What was measured:
Carbonic anhydrase 7 = Carbonic anhydrase 7 (Homo sapiens, UniProt P43166); test: Inhibition of human recombinant carbonic anhydrase 7-catalyzed CO2 hydration by stopped flow assay
Carbonic anhydrase 1 = Carbonic anhydrase 1 (Homo sapiens, UniProt P00915); test: Inhibition of human recombinant carbonic anhydrase 1-catalyzed CO2 hydration by stopped flow assay
Carbonic anhydrase 1, sequence (P00915 whole entry): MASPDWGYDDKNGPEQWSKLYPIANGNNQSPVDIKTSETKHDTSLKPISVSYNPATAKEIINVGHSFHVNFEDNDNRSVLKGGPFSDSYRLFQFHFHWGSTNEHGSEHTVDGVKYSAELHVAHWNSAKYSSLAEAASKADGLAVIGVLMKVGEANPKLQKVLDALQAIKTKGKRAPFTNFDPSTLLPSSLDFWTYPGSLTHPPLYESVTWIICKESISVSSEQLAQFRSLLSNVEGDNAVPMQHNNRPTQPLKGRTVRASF

Carbonic anhydrase 13 = Carbonic anhydrase 13 (Mus musculus, UniProt Q9D6N1); test: Inhibition of mouse recombinant carbonic anhydrase 13-catalyzed CO2 hydration by stopped flow assay
Carbonic anhydrase 13, sequence (Q9D6N1 whole entry): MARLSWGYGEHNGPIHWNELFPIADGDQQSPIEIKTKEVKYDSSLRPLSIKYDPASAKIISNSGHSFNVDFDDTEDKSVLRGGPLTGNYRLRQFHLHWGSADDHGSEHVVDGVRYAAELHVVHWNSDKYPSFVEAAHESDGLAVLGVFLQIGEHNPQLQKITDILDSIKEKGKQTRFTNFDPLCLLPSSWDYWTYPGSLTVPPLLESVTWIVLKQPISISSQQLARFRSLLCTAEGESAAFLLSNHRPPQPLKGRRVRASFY

Carbonic anhydrase 2 = Carbonic anhydrase 2 (Homo sapiens, UniProt P00918); test: Inhibition of human recombinant carbonic anhydrase 2-catalyzed CO2 hydration by stopped flow assay

Carbonic anhydrase 7, sequence (P43166 whole entry): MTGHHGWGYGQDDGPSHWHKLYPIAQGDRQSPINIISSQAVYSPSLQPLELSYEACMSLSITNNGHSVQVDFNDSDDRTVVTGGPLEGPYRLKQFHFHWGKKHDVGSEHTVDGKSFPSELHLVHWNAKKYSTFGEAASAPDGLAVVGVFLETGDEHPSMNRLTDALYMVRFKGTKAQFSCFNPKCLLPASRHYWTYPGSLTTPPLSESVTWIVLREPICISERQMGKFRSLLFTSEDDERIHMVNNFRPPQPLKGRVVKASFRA

`CCN(CC)C(=S)S` [DITIOCARB SODIUM] was tested, and the Ki (Carbonic anhydrase 7) was 1470 µM, the Ki (Carbonic anhydrase 1) was 0.79 µM and the Ki (Carbonic anhydrase 13) was 56 µM.
Work on `S=C(S)S` [SODIUM CARBONOTRITHIOATE] yielded a Ki (Carbonic anhydrase 7) of 36200 µM, a Ki (Carbonic anhydrase 1) of 8.7 µM and a Ki (Carbonic anhydrase 13) of 430 µM.
Molecule `O=S(=O)(O)NS(=O)(=O)O` [SODIUM IMINODISULFONATE] has a Ki (Carbonic anhydrase 7) of 39100 µM, a Ki (Carbonic anhydrase 1) of 310 µM and a Ki (Carbonic anhydrase 13) of 980 µM.
With `O=S(=O)(O)OOS(=O)(=O)O` [SODIUM PERSULFATE] the Ki (Carbonic anhydrase 7) was 3110 µM and the Ki (Carbonic anhydrase 13) was 4310 µM.
Molecule `O=P(O)(O)OP(=O)(O)O` [SODIUM PYROPHOSPHATE] has a Ki (Carbonic anhydrase 7) of 870 µM, a Ki (Carbonic anhydrase 1) of 25800 µM and a Ki (Carbonic anhydrase 13) of 730 µM.
Molecule `O=S(=O)(O)OS(=O)(=O)O` [SODIUM PYROSULFATE] has a Ki (Carbonic anhydrase 7) of 760 µM, a Ki (Carbonic anhydrase 1) of 990 µM and a Ki (Carbonic anhydrase 13) of 710 µM. The Ki (Carbonic anhydrase 2) was 970 µM.
`O=[Se](=O)(O)O` [SODIUM SELENATE] showed a Ki (Carbonic anhydrase 7) of 215000 µM, a Ki (Carbonic anhydrase 1) of 118000 µM and a Ki (Carbonic anhydrase 13) of 484000 µM.
`N#C[SeH]` [SODIUM SELENOCYANATE] gave a Ki (Carbonic anhydrase 7) of 1100 µM, a Ki (Carbonic anhydrase 1) of 85 µM and a Ki (Carbonic anhydrase 13) of 26500 µM.
`O=[Te](=O)(O)O` [SODIUM TELLURATE] gave a Ki (Carbonic anhydrase 7) of 460 µM, a Ki (Carbonic anhydrase 1) of 660 µM and a Ki (Carbonic anhydrase 13) of 380 µM.
